Where two headings read alike, the source gives them in different places.
Columns and labels:
in vitro = assay type: cell-based, human; conditions: human, 50% reduction in the level of ATP in HOS cells
Description: Cellular Cytotoxicity Assay.
On the day of the screen, cells were treated with compounds at the appropriate concentration range chosen and incubated at 37° C. for 48 hrs. Cytotoxicity was measured by monitoring ATP levels via a luciferase reporter assay. Cells were lysed in 50 μL cell lysis buffer (PerkinElmer, Waltham, Mass.) and shaken at 700 rpm at room temperature for 5 mins After the addition of 50 μL of ATPlite buffer (PerkinElmer) directly onto the lysed cells and shaking at 700 rpm at room temperature for 5 mins, ATP levels were monitored by measuring luciferase activity using a microplate reader. Activity was normalized to cytotoxicity in the absence of target compounds. KaleidaGraph (Synergy Software, Reading, Pa.) was used to perform regression analysis on the data. CC50 values were determined from the fit model.

[1] = system: HIV-1 constructs containing mutant IN Y143R; assay: microbe, parasite or virus in culture; assay type: cell-based; conditions: Human immunodeficiency virus 1
Text: (§1) Single-Round HIV-1 Infectivity Assay.
(§2) Human embryonyl kidney cell culture cell line 293 was acquired from the American type Culture Collection (ATCC).
(§3) The virus-containing supernatants were then harvested, clarified by low-speed centrifugation, filtrated, and diluted for preparation in infection assays. […] Activity was normalized to infectivity in the absence of target compounds. KaleidaGraph (Synergy Software, Reading, Pa.) was used to perform regression analysis on the data. EC50 values were determined from the fit model.
(§4) pNLNgoMIVR^−ΔEnv.LUC has been described previously (Zhao et al. 2008). The integrase codon reading frame was removed from pNLNgoMIVR^−ΔEnv LUC (between KpnI and SalI sites) and placed between the KpnI and SalI sites of pBluescript II KS+. Using that construct as the wild-type template, we prepared the following HIV-1 Integrase-resistant mutants via the QuikChange II XL (Stratagene, La Jolla, Calif.) site-directed mutagenesis protocol: H51Y, T66I, E92Q, G118R, Y143R, Q148H, Q148K, N155H, R263K, G140S+Q148H, G140A+Q148K, E138K+Q148K, and H51Y+R263K. The following sense with cognate antisense (not shown) oligonucleotides (Integrated DNA Technologies, Coralville, Iowa) were used in the mutagenesis: H51Y, 5′-[…]-3; T66I, 5′-[…]-3′; E92Q, 5′-[…]-3′; G118R, 5′-[…]-3′; E138K, 5′-[…]-3; G140A, 5′-[…]-3; G140S, 5′-[…]-3′; Y143R, 5′-[…]-3′; Q148H, 5′-[…]-3′; Q148K, 5′-[…]-3; N155H, 5′-[…]-3′; R263K 5′-[…]-3′. The double mutation G140S+Q148H was constructed by using the previously generated Q148H mutant and the appropriate oligonucleotide for the 2nd mutation, G140S. The double mutation G140A+Q148K was made by using the Q148K mutant and the appropriate oligonucleotide for the 2nd mutation, G140A. The double mutation E138K+Q148K was made by using the Q148K mutant and the appropriate oligonucleotide for the 2nd mutation, E138K. The double mutation H51Y+R263K was constructed by using the previously generated H51Y mutant and the appropriate oligonucleotides for the 2nd mutation, R263K. The DNA sequence of each construct was verified independently by DNA sequence determination. […] These DNA sequences were additionally checked independently by DNA sequence determination.

[2] = system: HIV-1 constructs containing wild-type IN; assay: microbe, parasite or virus in culture; assay type: cell-based; conditions: for EC50: Human immunodeficiency virus 1, WT IN, read-out: EC50 (nM, WT)
Text: as §1, §2, §3

HIV-1 integrase = HIV-1 integrase (Human immunodeficiency virus type 1 group M subtype B, UniProt P12497); assay: biochemical; assay type: biochemical
Description: In Vitro Integrase Assay.
Integrase reactions were carried out by adding drugs or an equivalent volume of 100% dimethyl sulfoxide (DMSO; used as the drug solvent) to a mixture of 20 nM DNA and 400 nM integrase in 50 mM morpholinepropanesulfonic acid (pH 7.2), 7.5 mM MgCl2, and 14 mM 2-mercaptoethanol. Reactions were performed at 37° C. for 2 h and quenched by the addition of an equal volume of loading buffer (formamide containing 1% sodium dodecyl sulfate, 0.25% bromophenol blue, and xylene cyanol). […] Dried gels were visualized using a Typhoon 8600 (GE Healthcare, Piscataway, N.J.). Densitometric analyses were performed using ImageQuant 5.1 software from GE Healthcare.

[3] = system: HIV-1 constructs containing mutant IN N155H; assay: microbe, parasite or virus in culture; assay type: cell-based; conditions: Human immunodeficiency virus 1
Text: as §1, §2, §3, §4

[4] = system: HIV-1 constructs containing mutant IN G140S-Q148H; assay: microbe, parasite or virus in culture; assay type: cell-based; conditions: Human immunodeficiency virus 1; Table 3; G140S-Q148H double mutant; read-out: EC50 (nM, IN Mutants) SH
Text: as §1, §2, §3, §4

[5] = Table 3, read-out: EC50 (nM, IN Mutants) Y143R
[6] = Table 4, 3′-processing, read-out: IC50 (3^+-Processing)
[7] = Table 4, strand transfer, read-out: IC50 (Strand Transfer)
[8] = Table 5, read-out: EC50 (nM, IN Mutants) Y143R
[9] = Table 3, read-out: EC50 (nM, IN Mutants) N155H
[10] = Table 1, 3′-processing, read-out: IC50 Values 3′-Processing
[11] = Table 1, strand transfer, read-out: IC50 Values Strand transfer

## O=C(NCc1ccc(F)cc1F)c1c(Nc2ccc3c(c2)Cc2ccccc2-3)c2cccnc2n(O)c1=O [XZ386, 4-((9H-fluoren-2-yl)amino)-N-(2,4-difluorobenzyl)-1-hydroxy-2-oxo-1,2-dihydro-1,8-naphthyridine-3-carboxamide]
In vitro; Table 3
  CC50: > 250000 nM
[1]; [5]
  EC50: 448 ± 28.1 nM
[2]; Table 3
  EC50: 171 ± 56.8 nM
[2]; Table 3, ratio of CC50 to EC50
  Si (selectivity index): >1,462
HIV-1 integrase; [6]
  IC50: 46 ± 8 µM
HIV-1 integrase; [7]
  IC50: 0.84 ± 0.21 µM

## COc1ccc2c(O)c(C(=O)NCc3ccc(F)cc3F)c(=O)n(O)c2n1 [XZ405, N-(2,4-difluorobenzyl)-1,4-dihydroxy-7-methoxy-2-oxo-1,2-dihydro-1,8-naphthyridine-3-carboxamide]
In vitro; Table 5
  CC50: 12100 ± 4600 nM
[1]; [8]
  EC50: 215 ± 31 nM
[2]; Table 5
  EC50: 186 ± 23.2 nM
[2]; Table 5, ratio of CC50 to EC50
  SI: 65
HIV-1 integrase; [6]
  IC50: 32 ± 4 µM
HIV-1 integrase; [7]
  IC50: 0.033 ± 0.005 µM

## O=C(NCc1ccc(F)c(F)c1)c1cc2cccnc2n(O)c1=O [XZ392, N-(3,4-difluorobenzyl)-1-hydroxy-2-oxo-1,2-dihydro-1,8-naphthyridine-3-carboxamide]
In vitro; Table 3
  CC50: > 250000 nM
[3]; [9]
  EC50: 2200 ± 61 nM
[1]; [5]
  EC50: 39.7 ± 12.5 nM
[2]
  Si (selectivity index): >4,058
[2]; Table 3
  EC50: 61.6 ± 13.8 nM
HIV-1 integrase; [10]
  IC50: 13.6 ± 1.8 µM
HIV-1 integrase; [11]
  IC50: 0.017 ± 0.003 µM

## COC(=O)[C@@H](C)Nc1c(C(=O)NCc2ccc(F)cc2F)c(=O)n(O)c2ncccc12 [XZ395, (R)-methyl 2-((3-((2,4-difluorobenzyl)carbamoyl)-1-hydroxy-2-oxo-1,2-dihydro-1,8-naphthyridin-4-yl)amino)propanoat]
In vitro; Table 3
  CC50: > 250000 nM
[4]
  EC50: 89.3 ± 26.3 nM
[1]; [5]
  EC50: 8.1 ± 1.7 nM
[2]; Table 3
  EC50: 11.3 ± 4.7 nM

## O=C(NCc1ccc(F)cc1F)c1c(Nc2ccccc2)c2cccnc2n(O)c1=O [XZ377, N-(2,4-difluorobenzyl)-1-hydroxy-2-oxo-4-(phenylamino)-1,2-dihydro-1,8-naphthyridine-3-carboxamide]
In vitro; Table 3
  CC50: > 250000 nM
[3]; [9]
  EC50: 110 ± 17.2 nM
[1]; [5]
  EC50: 24.9 ± 6.4 nM
[2]
  Si (selectivity index): >17,857
[2]; Table 3
  EC50: 14.2 ± 1.9 nM
HIV-1 integrase; read-out: IC50 (3^+-Processing)
  IC50: 6.9 ± 1.1 µM
HIV-1 integrase; read-out: IC50 (Strand Transfer)
  IC50: 0.018 ± 0.006 µM

## O=C(NCc1ccc(F)cc1F)c1c(Nc2ccc(-c3ccccc3)cc2)c2cccnc2n(O)c1=O [XZ385, 4-([1,1′-biphenyl]-4-ylamino)-N-(2,4-difluorobenzyl)-1-hydroxy-2-oxo-1,2-dihydro-1,8-naphthyridine-3-carboxamide]
In vitro; Table 3
  CC50: > 250000 nM
[1]; [5]
  EC50: 361 ± 84 nM
[2]; Table 3
  EC50: 372 ± 63 nM
[2]; Table 3, ratio of CC50 to EC50
  Si (selectivity index): >673
HIV-1 integrase; [6]
  IC50: 52 ± 5 µM
HIV-1 integrase; [7]
  IC50: 0.34 ± 0.08 µM

## N#Cc1ccc(-c2ccc(Nc3c(C(=O)NCc4ccc(F)cc4F)c(=O)n(O)c4ncccc34)cc2)cc1 [XZ388, 4-((4′-cyano-[1,1′-biphenyl]-4-yl)amino)-N-(2,4-difluorobenzyl)-1-hydroxy-2-oxo-1,2-dihydro-1,8-naphthyridine-3-carboxamide]
In vitro; Table 3
  CC50: > 250000 nM
[1]; [5]
  EC50: 346 ± 38.3 nM
[2]; Table 3
  EC50: 123 ± 20.7 nM
[2]; Table 3, ratio of CC50 to EC50
  Si (selectivity index): >2,033
HIV-1 integrase; [6]
  IC50: 70 ± 7 µM
HIV-1 integrase; [7]
  IC50: 0.13 ± 0.03 µM

## Nc1ccc(-c2ccc(Nc3c(C(=O)NCc4ccc(F)cc4F)c(=O)n(O)c4ncccc34)cc2)cc1 [XZ387, 4-((4′-amino-[1,1′-biphenyl]-4-yl)amino)-N-(2,4-difluorobenzyl)-1-hydroxy-2-oxo-1,2-dihydro-1,8-naphthyridine-3-carboxamide]
In vitro; Table 3
  CC50: > 250000 nM
[3]; [9]
  EC50: 423 ± 168 nM
[1]; [5]
  EC50: 102 ± 1.4 nM
[2]; Table 3
  EC50: 6.3 ± 2.4 nM
[2]; Table 3, ratio of CC50 to EC50
  Si (selectivity index): >25,000
HIV-1 integrase; [6]
  IC50: 80 ± 11 µM
HIV-1 integrase; [7]
  IC50: 0.13 ± 0.02 µM

## COC(=O)[C@H](Nc1c(C(=O)NCc2ccc(F)cc2F)c(=O)n(O)c2ncccc12)c1ccccc1 [XZ397, (R)-methyl 2-((3-((2,4-difluorobenzyl)carbamoyl)-1-hydroxy-2-oxo-1,2-dihydro-1,8-naphthyridin-4-yl)amino)-2-phenylacetate]
In vitro; Table 3
  CC50: > 250000 nM
[3]; [9]
  EC50: 21.6 ± 3.7 nM
[2]; Table 3
  EC50: 7.4 ± 3.3 nM

## COC(=O)CNc1c(C(=O)NCc2ccc(F)cc2F)c(=O)n(O)c2nc(OC)ccc12 [XZ407, methyl 2-((3-((2,4-difluorobenzyl)carbamoyl)-1-hydroxy-7-methoxy-2-oxo-1,2-dihydro-1,8-naphthyridin-4-yl)amino)acetate]
In vitro; Table 5
  CC50: 11700 ± 3100 nM
[3]; Table 5, read-out: EC50 (nM, IN Mutants) N155H
  EC50: 31300 ± 320 nM
[1]; [8]
  EC50: 51.5 ± 12.6 nM
[2]; Table 5
  EC50: 32 ± 13 nM
[2]; Table 5, ratio of CC50 to EC50
  SI: 366
HIV-1 integrase; [6]
  IC50: 20 ± 2 µM
HIV-1 integrase; [7]
  IC50: 0.042 ± 0.005 µM

## O=C(NCc1ccc(F)c(Cl)c1)c1cc2cccnc2n(O)c1=O [XZ391, N-(3-chloro-4-fluorobenzyl)-1-hydroxy-2-oxo-1,2-dihydro-1,8-naphthyridine-3-carboxamide]
In vitro; Table 3
  CC50: > 250000 nM
[3]; [9]
  EC50: 90.3 ± 5.6 nM
[1]; [5]
  EC50: 33.9 ± 5.5 nM
[2]
  Si (selectivity index): >6,667
[2]; Table 3
  EC50: 37.5 ± 14.5 nM
HIV-1 integrase; [10]
  IC50: 9.4 ± 1.5 µM
HIV-1 integrase; [11]
  IC50: 0.014 ± 0.003 µM

## CCOC(=O)[C@@H]1CCCN1c1c(C(=O)NCc2ccc(F)cc2F)c(=O)n(O)c2ncccc12 [XZ404, (S)-ethyl 1-(3-((2,4-difluorobenzyl)carbamoyl)-1-hydroxy-2-oxo-1,2-dihydro-1,8-naphthyridin-4-yl)pyrrolidine-2-carboxylate]
In vitro; Table 3
  CC50: 18200 ± 7100 nM
[1]; [5]
  EC50: 1660 ± 920 nM
[2]; Table 3
  EC50: 590 ± 71.8 nM
[2]; Table 3, ratio of CC50 to EC50
  Si (selectivity index): 31
HIV-1 integrase; [6]
  IC50: 86 ± 6 µM
HIV-1 integrase; [7]
  IC50: 0.31 ± 0.04 µM

## Nc1c(C(=O)NCc2ccc(F)cc2F)c(=O)n(O)c2ncc(CCCC3CCCCC3)cc12 [XZ428, 4-Amino-6-(3-cyclohexylpropyl)-N-(2,4-difluorobenzyl)-1-hydroxy-2-oxo-1,2-dihydro-1,8-naphthyridine-3-carboxamide]
In vitro; Table 8
  CC50: 27400 nM
[3]; Table 8, read-out: EC50 (nM, IN mutants) N155H
  EC50: 146 nM
[1]; Table 8, read-out: EC50 (nM, IN mutants) Y143R
  EC50: 112 nM
[2]; Table 8
  EC50: 53.4 nM
HIV-1 integrase; Table 7, 3′-processing, read-out: IC50 (μM) 3′-P
  IC50: 289 ± 49 µM
HIV-1 integrase; Table 7, strand transfer, read-out: IC50 (μM) ST
  IC50: 3.28 ± 0.468 µM

## O=C(NCc1ccc(F)cc1)c1cc2cccnc2n(O)c1=O [XZ393, N-(4-fluorobenzyl)-1-hydroxy-2-oxo-1,2-dihydro-1,8-naphthyridine-3-carboxamide]
In vitro; Table 3
  CC50: > 250000 nM
[3]; [9]
  EC50: 268 ± 89 nM
[1]; [5]
  EC50: 24.1 ± 5.3 nM
[2]; Table 3
  EC50: 25.1 ± 9.4 nM
[2]; Table 3, ratio of CC50 to EC50
  Si (selectivity index): >9,960
HIV-1 integrase; [10]
  IC50: 8.9 ± 1 µM
HIV-1 integrase; [11]
  IC50: 0.016 ± 0.003 µM
